# Laboratory results taken from patent US20240327351A1, “AMIDE AND ETHER SUBSTITUTED N-(1H-INDOL-7-YL)BENZENESULFONAMIDES AND USES THEREOF” (TRIANA BIOMEDICINES, INC., priority 2021, published 2024).
# Tests used:
# DCAF15 = DCAF15 (Homo sapiens, UniProt Q66K64); assay: HTRF competition assay, binary interaction between compounds and DCAF15; format: binding; conditions: competition with Alexa Fluor 647 tracer, His-tagged DCAF15 complex
# Procedure: Example 7: Measurement of Binary Interaction Between Compounds And DCAF15 Using Homogeneous Time Resolved Fluorescence (HTRF)
# DCAF15 interactions with test compounds were monitored using HTRF competition assays (Cisbio, Bedford, MA). Test compounds were first collected in a 384-well microplate (cat. #781280, Grenier Bio-One, Monroe, NC) as 10 mM stocks in 100% dimethyl sulfoxide (DMSO). A second stock plate (cat. #781280, Grenier Bio-One, Monroe, NC) was prepared through 3-fold serial dilution in DMSO of the afore-mentioned stocks using a Mosquito HTS dispenser (mosquito@ HTS, SPT Labtech, Boston, MA). 0.2 ul of these diluted stocks were then dispensed into a 384-well Optiplate (cat. #6007290, Perkin Elmer, Waltham, MA) in duplicate wells, to assemble the assay plate. The tracer molecule containing an Alexa Fluor 647 probe was prepared in 25 mM HEPES pH 7.5, 100 mM NaCl, 0.1 mg/ml BSA, 0.005% Tween 20, 0.5 mM TCEP (dilution buffer) to 612 nM (2.04×). Separately, His-tagged DCAF15 complex was prepared at 32 nM (4×) in the dilution buffer, and mAb Anti-6His-Eu cryptate Gold (cat. #61H12KLA, Cisbio, Bedford, MA) at 4× dilution in the detection buffer (cat. #61 DB9RDF, Cisbio, Bedford, MA). These two solutions were mixed and incubated for 15 min at room temperature. 9.8 ul of the tracer solution and 10 ul of the DCAF15/mAb Anti-6His-Eu cryptate Gold mixture were added sequentially to each well in the assay plate. Reaction mixtures with no DCAF15 added were included as positive controls. The final mixture was incubated for an hour at room temperature and spun down briefly before data collection at 615 nm and 666 nm using En Vision 2104 Multilabel Plate Reader (Perkin Elmer, Bedford, MA). Binding was estimated based on ratiometric analysis and titration curves were generated in GraphPad Prism (7.00, GraphPad, La Jolla, CA).
# DCAF15/RBM39 = DCAF15/RBM39 (Homo sapiens, UniProt Q14498+Q66K64); assay: AlphaLISA compound-induced DCAF15-RBM39 ternary complex formation; format: binding; conditions: His-tagged DCAF15 complex and biotin-carrying RBM39
# Procedure: Example 6: Quantitative Evaluation of Compound-Induced Ternary Complex Formation Using Amplified Luminescent Proximity Homogeneous Assay
# Compound-induced DCAF15-RBM39 ternary complex formation was monitored using AlphaLISA® assays (Perkin Elmer, Waltham, MA). Test compounds were first collected in a 384-well microplate (cat. #781280, Grenier Bio-One, Monroe, NC) as 2 mM stocks in 100% dimethyl sulfoxide (DMSO). These stocks were then serially diluted in DMSO by 3-fold into a new plate (cat. #781280, Grenier Bio-One, Monroe, NC) using a Mosquito HTS dispenser (mosquito@ HTS, SPT Labtech, Boston, MA). 0.2 ul of these diluted stocks were then dispensed into a 384-well Optiplate (cat. #6007290, Perkin Elmer, Waltham, MA) in duplicate wells, to assemble the final assay plate consisting of duplicated dose ranges. Separately, a protein mixture consisting of His-tagged DCAF15 complex and biotin-carrying RBM39, each at 408 nM (2.04×), was prepared in 50 mM HEPES, pH 7.5, 100 mM NaCl, 2 mM MgCl2, 0.1% BSA, 2 mM TCEP, 0.05% Tween-20 (dilution buffer). 9.8 ul of this protein mixture was then mixed with the compounds in the assay plate and incubated for one hour at room temperature. Reaction mixtures with no compounds added were included as negative controls, while a His-tagged and biotinylated GST protein was included to track general assay performance. Nickel Chelate AlphaLISA Acceptor beads (cat. #AL108M, Perkin Elmer, MA) and AlphaScreen Streptavidin Donor beads (cat. #6760002, Perkin Elmer, Waltham, MA) were prepared separately in the dilution buffer as 4× stocks (80 ug/ml). The beads were then added to the assay plate sequentially with incubation at room temperature for 1-2 hours after each addition. Signals were recorded using EnVision 2104 Multilabel Plate Reader (Perkin Elmer, Waltham, MA) and titration curves were generated in GraphPad Prism (7.00, GraphPad, La Jolla, CA).
SMILES,IC50 (DCAF15) [nM],EC50 (DCAF15/RBM39) [nM]
CC(C)CNC(=O)c1ccc(S(=O)(=O)Nc2ccc(Cl)c3c(Cl)c[nH]c23)cc1 [Compound 239],> 100000,< 1000
O=S(=O)(Nc1ccc(Cl)c2c(Cl)c[nH]c12)c1cccc(OCCCN2CC3(COC3)C2)c1 [Compound 108],> 100000,< 1000
CNCCCCCCOc1ccc(S(=O)(=O)Nc2ccc(Cl)c3c(Cl)c[nH]c23)cc1 [Compound 148],1000 to 10000,< 1000
O=C(OCc1ccccc1)N1C[C@@H]2[C@@H](COc3cccc(S(=O)(=O)Nc4ccc(Cl)c5c(Cl)c[nH]c45)c3)[C@@H]2C1 [Compound 49],> 100000,1000 to 10000
O=C(c1cccc(S(=O)(=O)Nc2ccc(Cl)c3c(Cl)c[nH]c23)c1F)N1CCC(c2ccnc(C(F)F)c2)CC1 [Compound 221],< 1000,< 1000
CCc1nc(CN(C)C(=O)c2cccc(S(=O)(=O)Nc3ccc(Cl)c4c(Cl)c[nH]c34)c2F)no1 [Compound 176],1000 to 10000,< 1000
O=C(c1ccc(S(=O)(=O)Nc2ccc(Cl)c3c(Cl)c[nH]c23)c(F)c1)N1CCC(Oc2cccnc2)CC1 [Compound 220],1000 to 10000,< 1000
O=C(c1ccc(S(=O)(=O)Nc2ccc(Cl)c3c(Cl)c[nH]c23)c(F)c1)N1CCC(c2ccnc(C(F)F)c2)CC1 [Compound 222],> 100000,> 100000
O=C(c1ccc(S(=O)(=O)Nc2ccc(Cl)c3c(Cl)c[nH]c23)c(F)c1)N1CC[C@H](n2ccnn2)C1 [Compound 217],< 1000,< 1000
O=C(N[C@H]1CCc2ccccc21)c1ccc(S(=O)(=O)Nc2ccc(Cl)c3c(Cl)c[nH]c23)c(F)c1 [Compound 155],> 100000,> 100000
CN1C[C@@H](NC(=O)c2cccc(S(=O)(=O)Nc3ccc(Cl)c4c(Cl)c[nH]c34)c2F)CCC1=O [Compound 158],< 1000,< 1000
O=S(=O)(Nc1ccc(Cl)c2c(Cl)c[nH]c12)c1cccc(OC2CCC3(CCNCC3)CC2)c1 [Compound 32],10000 to 100000,1000 to 10000
O=S(=O)(Nc1ccc(Cl)c2c(Cl)c[nH]c12)c1cccc(O[C@H]2CC[C@H](N3CCOCC3)CC2)c1 [Compound 16],1000 to 10000,< 1000
Cc1ccccc1Oc1ccccc1CNC(=O)c1ccc(S(=O)(=O)Nc2ccc(Cl)c3c(Cl)c[nH]c23)c(F)c1 [Compound 173],> 100000,> 100000
O=S(=O)(Nc1ccc(Cl)c2c(Cl)c[nH]c12)c1cccc(OC[C@H]2[C@@H]3CNC[C@@H]32)c1 [Compound 47],10000 to 100000,< 1000
CNC(=O)c1cccc(S(=O)(=O)Nc2ccc(Cl)c3c(Cl)c[nH]c23)c1F [Compound 236],1000 to 10000,< 1000
O=C(c1cccc(S(=O)(=O)Nc2ccc(Cl)c3c(Cl)c[nH]c23)c1F)N1CCc2[nH]c(-c3ccccc3)nc2C1 [Compound 226],1000 to 10000,< 1000
O=S(=O)(Nc1ccc(Cl)c2c(Cl)c[nH]c12)c1cccc(OCCCN2CCCc3ccccc32)c1 [Compound 114],> 100000,1000 to 10000
CCOc1cc(N2CCC[C@H](COc3cccc(S(=O)(=O)Nc4ccc(Cl)c5c(Cl)c[nH]c45)c3)C2)ncn1 [Compound 43],> 100000,1000 to 10000

SMILES,IC50 (DCAF15) [nM],EC50 (DCAF15/RBM39) [nM]
NC1CCC(Oc2ccc(S(=O)(=O)Nc3ccc(Cl)c4c(Cl)c[nH]c34)cc2)CC1 (centres unmarked) [Compound 3],1000 to 10000,< 1000
O=C(NCCOCC1CC1)c1cccc(S(=O)(=O)Nc2ccc(Cl)c3c(Cl)c[nH]c23)c1F [Compound 186],1000 to 10000,1000 to 10000
"O=C(NS(=O)(=O)c1ccc(Br)s1)c1ccc(Cl)cc1Cl [Tasisulam, tasisulam, reference compound]",,1000 to 10000
O=C(c1cccc(S(=O)(=O)Nc2ccc(Cl)c3c(Cl)c[nH]c23)c1F)N1CC(N2CCc3ccccc32)C1 [Compound 214],1000 to 10000,1000 to 10000
CCN(CC)C(=O)c1ccc(CNC(=O)c2ccc(S(=O)(=O)Nc3ccc(Cl)c4c(Cl)c[nH]c34)c(F)c2)cc1 [Compound 171],1000 to 10000,1000 to 10000
O=S(=O)(Nc1ccc(Cl)c2c(Cl)c[nH]c12)c1ccc(OC[C@H]2[C@@H]3CNC[C@@H]32)cc1 [Compound 48],10000 to 100000,< 1000
CN1C[C@@H](NC(=O)c2ccc(S(=O)(=O)Nc3ccc(Cl)c4c(Cl)c[nH]c34)c(F)c2)CCC1=O [Compound 159],< 1000,< 1000
"O=S(=O)(Nc1ccc(Cl)c2c(Cl)c[nH]c12)c1ccc(OC2CC3(CNC3)C2)cc1 [Compound 25, 4-((2-azaspiro[3.3]heptan-6-yl)oxy)-N-(3,4-dichloro-1H-indol-7-yl)benzenesulfonamide]",1000 to 10000,< 1000
COCCOc1ccc(S(=O)(=O)Nc2ccc(Cl)c3c(Cl)c[nH]c23)cc1Br [Compound 231],1000 to 10000,1000 to 10000
O=c1oc2ccccc2n1CCCOc1ccc(S(=O)(=O)Nc2ccc(Cl)c3c(Cl)c[nH]c23)cc1 [Compound 113],> 100000,1000 to 10000
Cc1ccnc(CNC(=O)c2ccc(S(=O)(=O)Nc3ccc(Cl)c4c(Cl)c[nH]c34)c(F)c2)c1 [Compound 179],1000 to 10000,< 1000
CCOc1cc(N2CCC[C@H](COc3ccc(S(=O)(=O)Nc4ccc(Cl)c5c(Cl)c[nH]c45)cc3)C2)ncn1 [Compound 44],> 100000,1000 to 10000
N#Cc1ccc(Oc2ccc(S(=O)(=O)Nc3ccc(Cl)c4c(Cl)c[nH]c34)cc2)cc1 [Compound 37],> 100000,1000 to 10000
O=S(=O)(Nc1ccc(Cl)c2c(Cl)c[nH]c12)c1cccc(OC[C@@H]2CCCNC2)c1 [Compound 45],10000 to 100000,< 1000
CN1CC(CCNC(=O)c2ccc(S(=O)(=O)Nc3ccc(Cl)c4c(Cl)c[nH]c34)c(F)c2)C1 [Compound 193],1000 to 10000,< 1000
Cc1nc2c(n1C)CCN(C(=O)c1ccc(S(=O)(=O)Nc3ccc(Cl)c4c(Cl)c[nH]c34)c(F)c1)C2 [Compound 229],< 1000,< 1000
"NS(=O)(=O)c1ccc(S(=O)(=O)Nc2cccc3c(Cl)c[nH]c23)cc1 [Indisulam, indisulam, reference compound]",,< 1000
"Nc1ccc(S(=O)(=O)Nc2cnc3c(Cl)cccc3n2)cc1 [CQS, cloroquinoxaline sulfonamide, reference compound]",,1000 to 10000
